Common to all, as to type: in vivo
In series [1] the test system is Bcl-2. Description: IHC assay of apoptosis-related factor Bcl-2 in testis of rats exposed to ZEA. As to conditions: rat testis. The source says:
(§1) As described herein, the therapeutic efficacy of the encapsulated RSV nanoparticles can be evaluated based on immunohistochemical assessment of apoptosis-related factors (Bax and Bcl-2) in the testis and the gene expression of constitutive androstane receptor (CAR), a well-known xenobiotic-sensing nuclear receptor in the liver, of rats exposed to a fungal mycotoxin, zearalenone (ZEA). The encapsulated RSV nanoparticles reversed the toxic effects of the mycotoxin, as reflected by intense Bcl-2 immunoreactivity and negligible Bax immunoreactivity. Further, the expression of the CAR gene was enhanced by treatment with the present RSV nanoparticles.
Testes sections stained immunohistochemically against Bcl-2 was noticeably higher (brown color) in control group that received distilled water (FIG. 5A), compared with the group that received 0.1 mg/kg of ZEA that have almost no Bcl-2 immunoreactivity (FIG. 5B). […] High Bcl-2 immunoreactivity was detected in the groups that received 10 mg/kg RSV or 10 mg/kg RSV NPs (FIGS. 5E and 5F).

Series [2] relates to apoptosis-related factors (Bax and Bcl-2). Description: Overall immunohistochemical assessment of apoptosis-related factors (Bax and Bcl-2), mycotoxin-induced apoptosis in rat testis. As to conditions: testis of rats exposed to ZEA and treated.
Source text: as §1
(§2) IHC assay was conducted to estimate the toxic impact of ZEA and the ameliorative effect of RSV and its nano-formulation on the expression of apoptosis-related factors (Bax and Bcl-2).
Testes sections stained immunohistochemically against Bcl-2 was noticeably higher (brown color) in control group that received distilled water (FIG. 5A), compared with the group that received 0.1 mg/kg of ZEA that have almost no Bcl-2 immunoreactivity (FIG. 5B). […] High Bcl-2 immunoreactivity was detected in the groups that received 10 mg/kg RSV or 10 mg/kg RSV NPs (FIGS. 5E and 5F). […]

The subject of series [3] is Bax. Put plainly: IHC assay of apoptosis-related factor Bax in testis of rats exposed to ZEA. As to conditions: rat testis.
Source text: as §1, §2

The mark [4] stands for this setting: 0.1 mg/kg ZEA + 10 mg/kg treatment.
[5] abbreviates: 10 mg/kg alone, no ZEA, 10 mg/kg.

The values that follow come from patent US12521353B1, “Encapsulated resveratrol (RSV) nanoparticles” (priority 2024, dated 2026).

Entries after “also recorded” stand apart in the source; their conditions may differ.

For `Oc1ccc(C=Cc2cc(O)cc(O)c2)cc1` [RSV, Resveratrol], the Bcl-2 immunoreactivity entry in series [1] (setting [4]) was “moderate”; in series [1] (setting [5]) it was “intense and High”. Besides, in series [2], the “effect on apoptosis induced by the mycotoxin (expression of Bax and Bcl-2 factors)” value is “effectively reduced”. Besides, the Bax immunoreactivity entry in series [3] (setting [4]) is “moderate to low”; in series [3] (setting [5]) it was “negative; also recorded: Almost no”.

In the case of `C[C@H]1CCCC(=O)CCC/C=C/c2cc(O)cc(O)c2C(=O)O1` [ZEA, zearalenone], in series [1] (0.1 mg/kg ZEA alone, 0.1 mg/kg), the Bcl-2 immunoreactivity entry was “weak and almost no”. Moreover, the Bax immunoreactivity result in series [3] (0.1 mg/kg ZEA alone) is “intense”.
